Columns and labels:
ENaC = target: T1, ENaC (Homo sapiens, UniProt P37088+P51168+P51170); assay: ENaC short-circuit current in T84 cells; type: cell-based; details: 30 μM applied 10 min prior to 100 µM amiloride
T1 construct: endogenous in cells; host or cells: T84 cells (provided by Dr. Min Goo Lee)
Experimental: (§1) Snapwell inserts containing CFTR-expressing FRT and T84 cells were mounted in Ussing chambers (Physiologic Instruments, San Diego, CA, USA). Forskolin, isorhamnetin, and CFTRinh-172 were added to the apical and basolateral bath solution. For FRT cells, the apical bath was filled with a half-Cl^− solution and the basolateral bath was filled with HCO^3--buffered solution to generate transepithelial Cl^− gradient (apical, 64 mM; basolateral, 129 mM), and the basolateral membrane was permeabilized with 250 µg/mL amphotericin B. For T84 cells, symmetrical HCO^3--buffered solutions were used, and ENaC was inhibited with amiloride (100 µM). All cells were bathed for a 20-min stabilization period and aerated with 95% O2/5% CO2 at 37 °C. Apical membrane current and short-circuit current were measured with an EVC4000 Multi-Channel V/I Clamp (World Precision Instruments, Sarasota, FL, USA) and recorded using PowerLab 4/35 (AD Instruments, Castle Hill, Australia). Data were collected and analyzed with ADInstruments acquisition software Labchart Pro 7 software. The sampling rate was 4 Hz.

WT-CFTR = WT-CFTR (Homo sapiens, UniProt P13569); assay: Apical membrane current in WT-CFTR expressing FRT cells; type: cell-based; parameters: expressed in transfected cells; host or cells: FRT (Fisher rat thyroid) cells, provided by Dr. Alan Verkman
WT-CFTR, sequence (P13569 whole entry): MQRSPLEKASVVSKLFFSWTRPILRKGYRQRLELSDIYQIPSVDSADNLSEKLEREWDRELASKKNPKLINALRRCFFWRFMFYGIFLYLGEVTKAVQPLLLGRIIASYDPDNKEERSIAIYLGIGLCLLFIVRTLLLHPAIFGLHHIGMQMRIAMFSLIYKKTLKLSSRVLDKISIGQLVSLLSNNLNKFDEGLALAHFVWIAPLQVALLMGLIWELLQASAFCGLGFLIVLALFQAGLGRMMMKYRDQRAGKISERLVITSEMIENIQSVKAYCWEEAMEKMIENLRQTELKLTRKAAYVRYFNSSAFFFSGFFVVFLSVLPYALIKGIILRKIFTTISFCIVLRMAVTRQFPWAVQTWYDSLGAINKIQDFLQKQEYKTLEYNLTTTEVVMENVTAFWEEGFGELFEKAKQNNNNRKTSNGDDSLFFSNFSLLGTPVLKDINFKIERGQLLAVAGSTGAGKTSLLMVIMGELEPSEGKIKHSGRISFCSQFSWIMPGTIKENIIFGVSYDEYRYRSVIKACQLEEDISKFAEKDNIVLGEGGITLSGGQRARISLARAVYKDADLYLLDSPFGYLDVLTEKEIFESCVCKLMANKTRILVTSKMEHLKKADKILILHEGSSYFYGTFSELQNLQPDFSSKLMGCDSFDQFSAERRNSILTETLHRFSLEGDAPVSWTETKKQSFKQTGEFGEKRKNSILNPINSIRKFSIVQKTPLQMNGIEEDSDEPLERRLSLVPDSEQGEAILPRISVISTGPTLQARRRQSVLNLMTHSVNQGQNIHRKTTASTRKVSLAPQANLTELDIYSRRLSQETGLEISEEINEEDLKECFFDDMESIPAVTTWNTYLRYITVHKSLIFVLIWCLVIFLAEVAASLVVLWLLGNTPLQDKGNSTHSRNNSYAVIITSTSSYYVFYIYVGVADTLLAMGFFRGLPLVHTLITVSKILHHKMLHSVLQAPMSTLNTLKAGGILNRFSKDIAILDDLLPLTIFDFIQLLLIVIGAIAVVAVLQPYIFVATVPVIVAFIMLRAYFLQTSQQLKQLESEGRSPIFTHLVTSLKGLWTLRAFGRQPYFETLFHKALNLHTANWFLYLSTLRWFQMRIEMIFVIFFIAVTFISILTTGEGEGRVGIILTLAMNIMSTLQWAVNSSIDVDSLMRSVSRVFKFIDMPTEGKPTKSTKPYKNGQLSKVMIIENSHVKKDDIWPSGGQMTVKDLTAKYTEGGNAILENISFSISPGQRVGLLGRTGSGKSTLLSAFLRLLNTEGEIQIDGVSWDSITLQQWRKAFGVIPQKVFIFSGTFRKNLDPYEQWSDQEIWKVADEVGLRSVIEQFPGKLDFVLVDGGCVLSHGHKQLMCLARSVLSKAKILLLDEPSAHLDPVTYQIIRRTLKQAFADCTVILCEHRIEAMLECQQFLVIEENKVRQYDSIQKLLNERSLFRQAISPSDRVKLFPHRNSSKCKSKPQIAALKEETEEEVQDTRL
Experimental: as §1

[1] = tested on: pro-inflammatory cytokine mRNA expression; assay: Real-time PCR of pro-inflammatory cytokines in cornea and conjunctiva of dry eye mice; type: in vivo, mouse
Experimental: Eight-week-old C57BL/6 mice were used for this experiment. Experimental dry eye was induced by subcutaneous injection of 0.5 mg/100 μL scopolamine hydrobromide (Sigma-Aldrich, St. Louis, MO, USA) three times a day with a standard desiccating environment created by placing the mice in a chamber with a continuous air flow (15 L/min) in a room at 25 °C with an ambient humidity of 12%. Fourteen days after the initiation of experimental dry eye, the mice were treated or not with 5-μL drop of ophthalmic formulation (30 μM isorhamnetin in PBS with 0.1% DMSO) or vehicle three times a day. Eight days after the initiation of the formulation treatment, scopolamine injection was stopped. Ten days after the initiation of the formulation treatment, measurement of tear volume, corneal disruption, and relative mRNA level was performed.
The mRNA expressions of IL-1β, IL-6, IL-8, TNF-α, IFN-γ, and MMP-9 in cornea and conjunctiva of the dry eye model-treated mice were measured by qPCR. RNA was isolated using TRIzol reagent (Invitrogen, Carlsbad, CA, USA), and 1 μg of RNA was used to synthesize complementary DNA (cDNA) using RNA to cDNA EcoDryTM premix (TaKaRa, Shiga, Japan) according to the manufacturer’s protocol. The relative mRNA levels were measured in ViiA7 (Applied Biosystems, Foster City, CA, USA) using SYBR Green PCR Master Mix (Applied Biosystems). The primer sequences used were as follows: GAPDH, sense (5-[…]-3) and antisense (5-[…]-3), size of PCR product 155 base pairs; IL-1β, sense (5-[…]-3) and antisense (5-[…]-3), size of PCR product 199 base pairs; IL-6, sense (5-[…]-3) and antisense (5-[…]-3), size of PCR product 131 base pairs; IL-8, sense (5-[…]-3) and antisense (5-[…]-3), size of PCR product 190 base pairs; TNF-α, sense (5-[…]-3) and antisense (5-[…]-3), size of PCR product 166 base pairs; IFN-γ, sense (5-[…]-3) and antisense (5- […]-3), size of PCR product 156 base pairs; and MMP-9, sense (5-[…]-3) and antisense (5-[…]-3), size of PCR product 190 base pairs. The mRNA levels of the cytokines and MMP-9 were normalized to GAPDH levels and the fold-change in gene expression was determined by using 2^-ΔΔCT method.

[2] = tested on: conjunctival epithelial (ConjE) cells; assay: MTS cell viability assay in ConjE cells; type: cell-based, human; details: 48 h; isorhamnetin 30 μM, Triton X-100 0.01%
Experimental: Immortalized human CorE [47] and immortalized human ConjE (Innoprot, Bizkaia, Spain) cells were plated on 96-well microplates. After 24 h incubation, cells were treated with 30 μM isorhamnetin or 0.01% Triton X-100 and then they were incubated for two days. An equal amount of DMSO was added to the control. The culture medium and the compounds were changed every 12 h. To assess cell proliferation, after 48 h of incubation with the compound, the cells were reincubated with MTS for 1 h. The soluble formazan produced by cellular reduction of MTS was quantified by measuring the absorbance at 490 nm with Infinite M200 (Tecan, Grödig, Austria) microplate reader. MTS assay was done using CellTiter 96 AQueous One Solution Cell Proliferation Assay kit (Promega, Madison, WI, USA).

human CFTR = target: T2, human CFTR (Homo sapiens, UniProt P13569); assay: YFP quenching assay in CHO-K1 cells expressing CFTR and halide sensor YFP; type: cell-based; details: isorhamnetin applied 10 min prior to I- addition
T2 construct: expressed in transfected cells; host or cells: CHO-K1
T2 sequence (P13569 whole entry): as above
Experimental: CHO cells expressing wild-type CFTR with the halide sensor YFP-H148Q/I152L were plated in 96-well, black-walled microplates (Corning Inc., Corning, NY, USA) at a density of 2 × 10^4 cells per well. CHO-WT-CFTR-YFP cells were incubated for 48 h at 37 °C. Assays were done using FLUO star Omega microplate reader (BMG Labtech, Ortenberg, Germany) and MARS Data Analysis Software (BMG Labtech). Briefly, each well of a 96-well plate was washed three times in PBS (200 µL/wash). Then, 100 µL PBS was added to each well. Test compounds (1 µL) were added to each well at final concentration of 25 µM. After 10 min, 96-well plates were transferred to the microplate reader preheated to 37 °C for fluorescence assay. Each well was assayed individually for CFTR-mediated I^- influx by recording fluorescence continuously (400 ms per point) for 2 s (baseline). Then, 100 µL of 140 mM I^- solution were added at 2 s and then YFP fluorescence was recorded for 14 s. Initial iodide influx rate was determined from the initial slope of fluorescence decrease, by nonlinear regression, following infusion of iodide.

human ΔF508-CFTR = target: T3, human ΔF508-CFTR (Homo sapiens, UniProt P13569, DEL508-508); assay: Apical membrane current in FRT cells expressing low-temperature-rescued ΔF508-CFTR; type: cell-based
T3 construct: expressed in transfected cells; host or cells: FRT (Fisher rat thyroid) cells, provided by Dr. Alan Verkman; 27 °C for 24 h
T3 sequence (P13569 with tags, fused parts or gaps DEL508-508): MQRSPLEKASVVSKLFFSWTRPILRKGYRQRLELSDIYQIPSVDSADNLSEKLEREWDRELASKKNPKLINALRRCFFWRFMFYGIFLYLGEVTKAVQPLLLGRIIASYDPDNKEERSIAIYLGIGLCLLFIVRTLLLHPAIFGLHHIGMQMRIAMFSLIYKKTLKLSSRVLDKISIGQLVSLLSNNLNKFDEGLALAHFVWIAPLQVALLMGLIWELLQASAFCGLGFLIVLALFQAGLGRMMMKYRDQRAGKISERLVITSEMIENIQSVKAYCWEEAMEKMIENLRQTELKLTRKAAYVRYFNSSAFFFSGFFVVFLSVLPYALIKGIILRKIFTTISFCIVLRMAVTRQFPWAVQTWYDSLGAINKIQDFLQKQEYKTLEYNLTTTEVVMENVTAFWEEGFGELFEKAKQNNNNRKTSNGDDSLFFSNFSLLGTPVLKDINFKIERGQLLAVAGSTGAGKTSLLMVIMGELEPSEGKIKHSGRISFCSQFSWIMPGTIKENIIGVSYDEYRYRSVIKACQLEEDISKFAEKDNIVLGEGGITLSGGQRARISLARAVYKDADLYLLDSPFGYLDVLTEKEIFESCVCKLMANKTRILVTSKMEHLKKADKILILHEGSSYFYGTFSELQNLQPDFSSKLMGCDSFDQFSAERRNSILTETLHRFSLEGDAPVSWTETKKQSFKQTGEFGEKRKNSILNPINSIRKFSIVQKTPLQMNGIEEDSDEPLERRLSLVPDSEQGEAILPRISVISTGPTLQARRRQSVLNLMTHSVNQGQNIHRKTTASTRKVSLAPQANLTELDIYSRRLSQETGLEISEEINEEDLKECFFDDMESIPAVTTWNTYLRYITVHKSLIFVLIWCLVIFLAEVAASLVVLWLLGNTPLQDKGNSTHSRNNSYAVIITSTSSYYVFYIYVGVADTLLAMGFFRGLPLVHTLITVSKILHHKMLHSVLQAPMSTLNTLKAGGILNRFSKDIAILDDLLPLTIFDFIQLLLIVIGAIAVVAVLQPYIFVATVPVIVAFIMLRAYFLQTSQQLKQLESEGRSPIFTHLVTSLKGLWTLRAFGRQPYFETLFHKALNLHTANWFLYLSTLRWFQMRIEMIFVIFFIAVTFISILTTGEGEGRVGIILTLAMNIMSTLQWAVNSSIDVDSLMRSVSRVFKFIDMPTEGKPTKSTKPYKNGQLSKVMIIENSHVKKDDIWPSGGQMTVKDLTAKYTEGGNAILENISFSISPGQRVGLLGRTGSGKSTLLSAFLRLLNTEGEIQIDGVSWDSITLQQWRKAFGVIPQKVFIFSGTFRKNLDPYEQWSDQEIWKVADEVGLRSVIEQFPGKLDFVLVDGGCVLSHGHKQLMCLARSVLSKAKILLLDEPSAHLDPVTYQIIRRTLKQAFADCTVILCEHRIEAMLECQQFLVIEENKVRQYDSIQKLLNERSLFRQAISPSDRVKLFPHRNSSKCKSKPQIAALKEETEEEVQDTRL
Experimental: as §1

[3] = cornea of the dry eye mouse model

T1 sequence (P51168 whole entry): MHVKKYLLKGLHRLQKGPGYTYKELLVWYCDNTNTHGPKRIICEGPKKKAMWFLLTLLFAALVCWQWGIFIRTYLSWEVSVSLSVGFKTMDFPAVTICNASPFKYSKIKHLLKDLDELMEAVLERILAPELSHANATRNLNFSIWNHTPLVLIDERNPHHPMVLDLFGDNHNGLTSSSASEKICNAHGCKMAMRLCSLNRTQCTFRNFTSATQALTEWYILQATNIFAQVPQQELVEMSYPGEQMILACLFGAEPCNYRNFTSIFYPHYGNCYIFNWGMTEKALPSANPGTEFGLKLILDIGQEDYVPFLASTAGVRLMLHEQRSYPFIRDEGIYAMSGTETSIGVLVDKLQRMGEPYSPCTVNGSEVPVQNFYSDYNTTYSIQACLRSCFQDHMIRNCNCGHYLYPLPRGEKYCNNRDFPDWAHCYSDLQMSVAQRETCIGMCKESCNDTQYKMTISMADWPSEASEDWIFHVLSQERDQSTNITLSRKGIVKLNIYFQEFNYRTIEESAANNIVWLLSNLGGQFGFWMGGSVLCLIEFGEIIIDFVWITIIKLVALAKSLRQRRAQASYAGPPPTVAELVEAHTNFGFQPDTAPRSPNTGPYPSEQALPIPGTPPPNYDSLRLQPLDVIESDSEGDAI
T1 sequence (P37088 whole entry): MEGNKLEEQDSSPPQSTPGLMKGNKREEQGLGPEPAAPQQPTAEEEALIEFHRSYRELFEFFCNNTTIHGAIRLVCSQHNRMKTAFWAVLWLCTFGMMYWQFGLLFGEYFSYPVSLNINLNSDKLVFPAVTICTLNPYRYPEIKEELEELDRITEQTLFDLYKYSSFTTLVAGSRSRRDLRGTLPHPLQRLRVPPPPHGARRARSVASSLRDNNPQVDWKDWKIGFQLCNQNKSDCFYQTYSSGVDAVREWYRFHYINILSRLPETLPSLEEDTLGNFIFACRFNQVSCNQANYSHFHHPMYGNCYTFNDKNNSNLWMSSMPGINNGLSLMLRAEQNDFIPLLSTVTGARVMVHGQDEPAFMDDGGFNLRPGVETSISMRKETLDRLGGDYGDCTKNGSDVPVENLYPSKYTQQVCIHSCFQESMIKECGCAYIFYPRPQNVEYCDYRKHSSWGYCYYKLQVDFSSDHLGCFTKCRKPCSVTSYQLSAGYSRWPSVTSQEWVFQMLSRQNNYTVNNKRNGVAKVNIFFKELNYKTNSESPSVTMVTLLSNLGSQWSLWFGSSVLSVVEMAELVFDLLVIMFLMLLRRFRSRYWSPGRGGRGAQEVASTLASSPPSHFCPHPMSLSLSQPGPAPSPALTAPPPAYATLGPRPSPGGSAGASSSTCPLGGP
T1 sequence (P51170 whole entry): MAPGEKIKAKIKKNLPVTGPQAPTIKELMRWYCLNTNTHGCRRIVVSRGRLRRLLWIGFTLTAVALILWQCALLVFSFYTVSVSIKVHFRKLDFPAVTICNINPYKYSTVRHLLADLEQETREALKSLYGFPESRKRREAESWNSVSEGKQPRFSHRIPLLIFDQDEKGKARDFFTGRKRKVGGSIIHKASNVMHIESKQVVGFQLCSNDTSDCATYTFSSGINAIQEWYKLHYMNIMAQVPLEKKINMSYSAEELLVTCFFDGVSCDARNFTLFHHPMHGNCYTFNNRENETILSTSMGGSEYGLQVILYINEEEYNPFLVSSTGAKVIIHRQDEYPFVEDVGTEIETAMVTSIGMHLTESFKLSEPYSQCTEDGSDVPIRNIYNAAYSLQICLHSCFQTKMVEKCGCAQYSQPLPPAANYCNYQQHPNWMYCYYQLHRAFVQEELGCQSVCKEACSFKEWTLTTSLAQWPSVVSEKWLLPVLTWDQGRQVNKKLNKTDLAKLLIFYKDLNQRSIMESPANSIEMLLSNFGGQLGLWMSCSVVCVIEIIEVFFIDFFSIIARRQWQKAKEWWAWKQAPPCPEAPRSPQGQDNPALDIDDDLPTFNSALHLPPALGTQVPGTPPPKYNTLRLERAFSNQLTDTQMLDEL

COc1cc(-c2oc3cc(O)cc(O)c3c(=O)c2O)ccc1O [isorhamnetin]
ENaC function (short-circuit current) (ENaC): did not alter | EC50 (WT-CFTR): 6.6 ± 1.1 µM | CFTR activation (apical membrane current) (WT-CFTR; 30 μM, current not further increased by 20 μM forskolin): fully activated | IL-1β expression [1, 3]: significantly reduced | IL-8 expression [1, 3]: significantly reduced | TNF-α expression [1, 3]: significantly reduced | mRNA expression of cytokines in cornea and conjunctiva ([1]; dry eye mice treated with isorhamnetin for 10 days): strongly reduced | cell viability (MTS), ConjE cells [2]: did not affect the cell viability | CFTR chloride channel activity (YFP quenching) (human CFTR): significantly increased | ΔF508-CFTR chloride current activated by 20 μM forskolin (human ΔF508-CFTR; 30 μM isorhamnetin): doubled | forskolin-induced ΔF508-CFTR chloride current (human ΔF508-CFTR; dose-dependent, ΔF508-CFTR rescued at 27 °C for 24 h): strongly potentiated

Reference: paper PMC8070004, “Isorhamnetin Ameliorates Dry Eye Disease via CFTR Activation in Mice” (International Journal of Molecular Sciences, 2021)
